Each structure is given as a SMILES string. Where only a bound is given, the exact number is not on record here.

The first test concerns the target T1, human PAH with the R408W mutation (Homo sapiens, UniProt P00439, R408W).
T1 construct: expressed in transfected cells
T1 sequence (P00439 1-452 R408W): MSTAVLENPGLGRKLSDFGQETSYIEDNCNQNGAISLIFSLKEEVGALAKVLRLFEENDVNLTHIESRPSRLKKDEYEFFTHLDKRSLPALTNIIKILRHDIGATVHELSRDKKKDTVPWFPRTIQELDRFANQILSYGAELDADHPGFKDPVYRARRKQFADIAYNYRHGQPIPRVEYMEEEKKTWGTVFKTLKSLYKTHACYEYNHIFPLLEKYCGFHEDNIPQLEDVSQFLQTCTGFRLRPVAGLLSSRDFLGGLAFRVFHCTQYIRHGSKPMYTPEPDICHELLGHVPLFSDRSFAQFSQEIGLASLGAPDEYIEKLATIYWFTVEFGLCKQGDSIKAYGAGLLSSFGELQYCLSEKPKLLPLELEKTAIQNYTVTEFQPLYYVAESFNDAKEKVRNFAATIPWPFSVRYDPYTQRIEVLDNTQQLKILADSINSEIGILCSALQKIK
Put plainly: Cell Based Phenylalanine Flux Assay.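 Also: after compound treatment, cells received sepiapterin plus isotope-labelled Phenylalanine for 4 hours, then labelled Tyrosine in the medium was quantified, 10-point 2-fold dilution series run in duplicate.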 The following applies: A375 cells expressing R408W PAH; 24 hrs with compound, then 20 µM sepiapterin and 800 µM 13C9,15N-Phenylalanine for 4 hours; 13C-Tyrosine by LC-MS; average where tested multiple times; read-out: AC50.
The term AC50 denotes the midpoint of the concentration-response curve, whichever way the signal moves. On to `FC1(F)CC(c2nnc(N3CCc4[nH]cnc4C3c3cc4c(Cl)cccn4n3)o2)C1` (stereo not drawn), for which the AC50 is 1 to 5 µM. Still for that read-out and setting: the same measure for `O=C(c1nccs1)N1CCc2[nH]cnc2C1c1cc2ccccn2n1` (stereo not drawn): 1 to 5 µM; for `Cc1cccn2nc(C3c4nc[nH]c4CCN3C(=O)c3nnc(-c4cn[nH]c4)o3)cc12` (stereo not drawn): more than 5 µM; for `CC(C)(O)c1nnc(C(=O)N2CCc3[nH]cnc3C2c2cc3cccc(C(F)(F)F)n3n2)o1` (stereo not drawn): 1 to 5 µM.

For `Cc1ccc2cc(C3c4nc[nH]c4CCN3C(=O)c3ocnc3C(F)F)nn2c1` (stereo not drawn), the AC50 lay in the range of 1 to 5 µM. On to `O=C(c1nnc(C2CC(F)(F)C2)o1)N1CCc2[nH]cnc2C1c1cc2cccc(C(F)F)n2n1` (stereo not drawn), for which the AC50 is 1 to 5 µM. The same measure, in the same setting: the same measure for `COc1cccn2nc([C@@H]3c4nc[nH]c4CCN3C(=O)c3nnc(C(C)(C)O)o3)cc12` (single isomer, unassigned): more than 5 µM. Regarding `Cn1ncnc1C(=O)N1CCc2[nH]cnc2C1c1cc2ccccn2n1` (stereo not drawn), the AC50 was 1 to 5 µM.

As for `O=C(c1cnco1)N1CCc2[nH]cnc2C1c1cc2cccc(C(F)(F)F)n2n1` (stereo not drawn), the AC50 is more than 5 µM.

On to `CC(C)(F)c1nnc(C(=O)N2CCc3[nH]cnc3C2c2cc3cc(F)ccn3n2)o1` (stereo not drawn), for which the half-maximal activity concentration (AC50) lay within 1 to 5 µM. Still for that read-out and setting: the same measure for `Clc1cccc2cc(C3c4nc[nH]c4CCN3c3nnc(-c4cnccn4)o3)nn12` (stereo not drawn): 1 to 5 µM.

Staying with this test, now noted: A375 cells expressing human PAH R408W; 24 hrs compound incubation; 13C-Tyrosine by LC-MS; average where tested multiple times; read-out: AC50.
Turning to `O=C(c1nc2ccccc2s1)N1CCc2[nH]cnc2[C@@H]1c1cc2c(F)cccn2n1` [Example 2003, (R)-benzo[d]thiazol-2-yl(4-(4-fluoropyrazolo[1,5-a]pyridin-2-yl)-1,4,6,7-tetrahydro-5H-imidazo[4,5-c]pyridin-5-yl)methanone], the AC50 is more than 5 µM. The same measure, in the same setting: for `FC(F)(F)c1ccc(N2CCc3[nH]cnc3[C@@H]2c2cc3ccccn3n2)nc1` [Example 1915, (R)-4-(pyrazolo[1,5-a]pyridin-2-yl)-5-(5-(trifluoromethyl)pyridin-2-yl)-4,5,6,7-tetrahydro-1H-imidazo[4,5-c]pyridine] the value was more than 5 µM; for `O=C(c1cnc(C2CC2)o1)N1CCc2[nH]cnc2[C@H]1c1cc2c(C(F)(F)F)cccn2n1` [Example 2140, (S)-(2-cyclopropyloxazol-5-yl)(4-(4-(trifluoromethyl)pyrazolo[1,5-a]pyridin-2-yl)-1,4,6,7-tetrahydro-5H-imidazo[4,5-c]pyridin-5-yl)methanone], less than 0.5 µM; for `Fc1ccc(-c2nnc(N3CCc4[nH]cnc4[C@H]3c3cc4c(Cl)cccn4n3)o2)cc1` [Example 2009, (S)-2-(4-(4-chloropyrazolo[1,5-a]pyridin-2-yl)-1,4,6,7-tetrahydro-5H-imidazo[4,5-c]pyridin-5-yl)-5-(4-fluorophenyl)-1,3,4-oxadiazole], less than 0.5 µM.

The same test, now with this note: A375 cells expressing human R408W PAH; 24 hrs compound incubation; 13C-Tyrosine by LC-MS; average where tested multiple times; read-out: AC50.
For the compound `O=C(c1oc(C2(O)CC2)nc1C(F)F)N1CCc2[nH]cnc2[C@H]1c1cc2c(Cl)cccn2n1` [Example 704, (S)-(4-(4-chloropyrazolo[1,5-a]pyridin-2-yl)-6,7-dihydro-1H-imidazo[4,5-c]pyridin-5(4H)-yl)(4-(difluoromethyl)-2-(1-hydroxycyclopropyl)oxazol-5-yl)methanone], the AC50 is less than 0.5 µM. Turning to `O=C(c1cnco1)N1CCc2[nH]cnc2[C@@H]1c1cc2c(Cl)cccn2n1` [Example 767, (R)-(4-(4-chloropyrazolo[1,5-a]pyridin-2-yl)-6,7-dihydro-1H-imidazo[4,5-c]pyridin-5(4H)-yl)(oxazol-5-yl)methanone], the concentration at half-maximal activity (AC50) is more than 5 µM. The same measure, in the same setting: the same measure for `Cc1nc(C(C)(C)F)oc1C(=O)N1CCc2[nH]cnc2[C@@H]1c1cc2c(F)cccn2n1` [Example 1274, (R)-(2-(2-fluoropropan-2-yl)-4-methyloxazol-5-yl)(4-(4-fluoropyrazolo[1,5-a]pyridin-2-yl)-6,7-dihydro-1H-imidazo[4,5-c]pyridin-5(4H)-yl)methanone]: less than 0.5 µM; for `Cc1ccc2cc([C@H]3c4nc[nH]c4CCN3C(=O)c3oc(C(C)(C)O)nc3C(F)F)nn2c1` [Example 805]: 1 to 5 µM; for `O=C(c1nnc(-c2ccn(C(F)F)n2)o1)N1CCc2[nH]cnc2[C@@H]1c1cc2cccc(Cl)n2n1` [Example 965, (R)-(4-(7-chloropyrazolo[1,5-a]pyridin-2-yl)-6,7-dihydro-1H-imidazo[4,5-c]pyridin-5(4H)-yl)(5-(1-(difluoromethyl)-1H-pyrazol-3-yl)-1,3,4-oxadiazol-2-yl)methanone]: more than 5 µM. On to `O=C(c1nnc(-c2cnn(S(=O)(=O)C3CC3)c2)o1)N1CCc2[nH]cnc2[C@@H]1c1cc2c(F)cccn2n1` [Example 835, (R)-(5-(1-(cyclopropylsulfonyl)-1H-pyrazol-4-yl)-1,3,4-oxadiazol-2-yl)(4-(4-fluoropyrazolo[1,5-a]pyridin-2-yl)-6,7-dihydro-1H-imidazo[4,5-c]pyridin-5(4H)-yl)methanone], for which the concentration at half-maximal activity (AC50) was more than 5 µM.

Regarding `Cc1cccc2cc([C@H]3c4nc[nH]c4CCN3C(=O)c3cnn4cc(N(C)C)ccc34)nn12` [Example 1795, (R)-(6-(dimethylamino)pyrazolo[1,5-a]pyridin-3-yl)(4-(7-methylpyrazolo[1,5-a]pyridin-2-yl)-6,7-dihydro-1H-imidazo[4,5-c]pyridin-5(4H)-yl)methanone], the concentration at half-maximal activity (AC50) was more than 5 µM. The same measure, in the same setting: for `O=C(c1nnc(-c2ccn(C(F)(F)F)n2)o1)N1CCc2[nH]cnc2[C@@H]1c1cc2c(C(F)(F)F)cccn2n1` [Example 1513, (R)-(5-(1-(trifluoromethyl)-1H-pyrazol-3-yl)-1,3,4-oxadiazol-2-yl)(4-(4-(trifluoromethyl)pyrazolo[1,5-a]pyridin-2-yl)-6,7-dihydro-1H-imidazo[4,5-c]pyridin-5(4H)-yl)methanone] the value was 1 to 5 µM; for `O=C(c1nnc(-c2cccnc2)o1)N1CCc2[nH]cnc2[C@@H]1c1cc2cccc(Cl)n2n1` [Example 1307, (R)-(4-(7-chloropyrazolo[1,5-a]pyridin-2-yl)-6,7-dihydro-1H-imidazo[4,5-c]pyridin-5(4H)-yl)(5-(pyridin-3-yl)-1,3,4-oxadiazol-2-yl)methanone], 1 to 5 µM; for `Cc1c([C@@H]2c3nc[nH]c3CCN2C(=O)c2oc(C(C)(C)O)nc2C(F)F)nn2ccccc12` [Example 786, (S)-(4-(difluoromethyl)-2-(2-hydroxypropan-2-yl)oxazol-5-yl)(4-(3-methylpyrazolo[1,5-a]pyridin-2-yl)-6,7-dihydro-1H-imidazo[4,5-c]pyridin-5(4H)-yl)methanone], less than 0.5 µM. Consider `O=C(c1nnc(-c2ccccn2)o1)N1CCc2[nH]cnc2[C@@H]1c1cc2ccccn2n1` [Example 604, (R)-(4-(pyrazolo[1,5-a]pyridin-2-yl)-6,7-dihydro-1H-imidazo[4,5-c]pyridin-5(4H)-yl)(5-(pyridin-2-yl)-1,3,4-oxadiazol-2-yl)methanone], for which the AC50 is more than 5 µM. As to `CC(C)c1nnc(C(=O)N2CCc3[nH]cnc3[C@@H]2c2cc3ccccn3n2)o1` [Example 1449, (R)-(5-isopropyl-1,3,4-oxadiazol-2-yl)(4-(pyrazolo(1,5-a]pyridin-2-yl)-6,7-dihydro-1H-imidazo[4,5-c]pyridin-5(4H)-yl)methanone], the AC50 lay in the range of 1 to 5 µM.

As to `CC(O)c1nc(Br)c(C(=O)N2CCc3[nH]cnc3[C@H]2c2cc3ccccn3n2)o1` (single isomer, unassigned) [Example 997], the AC50 is less than 0.5 µM. For `Cc1cccn2nc([C@@H]3c4nc[nH]c4CCN3c3ncc(C(F)(F)F)cn3)cc12` [Example 1754, (S)-4-(4-methylpyrazolo[1,5-a]pyridin-2-yl)-5-(5-(trifluoromethyl)pyrimidin-2-yl)-4,5,6,7-tetrahydro-1H-imidazo[4,5-c]pyridine], the half-maximal activity concentration (AC50) was less than 0.5 µM.

In the case of `Cc1cccn2nc([C@H]3c4nc[nH]c4CCN3C(=O)c3nnc(-c4cnccn4)o3)cc12` [Example 956, (R)-(4-(4-methylpyrazolo[1,5-a]pyridin-2-yl)-6,7-dihydro-1H-imidazo[4,5-c]pyridin-5(4H)-yl)(5-(pyrazin-2-yl)-1,3,4-oxadiazol-2-yl)methanone], the AC50 was more than 5 µM. With `O=C(c1nnc(-c2cnn(C(F)F)c2)o1)N1CCc2[nH]cnc2[C@@H]1c1cc2cccc(C(F)(F)F)n2n1` [Example 1041, (R)-(5-(1-(difluoromethyl)-1H-pyrazol-4-yl)-1,3,4-oxadiazol-2-yl)(4-(7-(trifluoromethyl)pyrazolo[1,5-a]pyridin-2-yl)-6,7-dihydro-1H-imidazo[4,5-c]pyridin-5(4H)-yl)methanone], the half-maximal activity concentration (AC50) was more than 5 µM. The same measure, in the same setting: the same measure for `Cc1nc(C(C)(C)F)oc1C(=O)N1CCc2[nH]cnc2[C@H]1c1cc2ccccn2n1` [Example 1250, (S)-(2-(2-fluoropropan-2-yl)-4-methyloxazol-5-yl)(4-(pyrazolo[1,5-a]pyridin-2-yl)-6,7-dihydro-1H-imidazo[4,5-c]pyridin-5(4H)-yl)methanone]: less than 0.5 µM; for `Cc1nc(C(C)(C)O)oc1C(=O)N1CCc2[nH]cnc2[C@H]1c1cc2c(Cl)cccn2n1` [Example 724, (S)-(4-(4-chloropyrazolo[1,5-a]pyridin-2-yl)-6,7-dihydro-1H-imidazo[4,5-c]pyridin-5(4H)-yl)(2-(2-hydroxypropan-2-yl)-4-methyloxazol-5-yl)methanone]: less than 0.5 µM.
